Measured values taken from paper PMC6214618, “Multimodal Ligand Binding Studies of Human and Mouse G-Coupled Taste Receptors to Correlate Their Species-Specific Sweetness Tasting Properties” (Molecules : A Journal of Synthetic Chemistry and Natural …, 2018).
Peptide text beside a SMILES is read from it.

Tests used:
human T1R2 ATD [1] = target: T1, human T1R2 ATD (Homo sapiens, UniProt Q8TE23); experiment: Circular dichroism (CD) spectroscopy of ligand binding, human T1R2 ATD; conditions: for Kd: measured by CD, 25 °C, 4.5 μM ATD protein, nonlinear regression at fixed wavelength; for change in CD profile / ellipticity upon ligand addition: His-hT1R2 ATD, 209 and 219 nm
T1 construct: or Ser25-Thr489 in the 8xHis-Tag; made in house
T1 sequence (Q8TE23 25-489): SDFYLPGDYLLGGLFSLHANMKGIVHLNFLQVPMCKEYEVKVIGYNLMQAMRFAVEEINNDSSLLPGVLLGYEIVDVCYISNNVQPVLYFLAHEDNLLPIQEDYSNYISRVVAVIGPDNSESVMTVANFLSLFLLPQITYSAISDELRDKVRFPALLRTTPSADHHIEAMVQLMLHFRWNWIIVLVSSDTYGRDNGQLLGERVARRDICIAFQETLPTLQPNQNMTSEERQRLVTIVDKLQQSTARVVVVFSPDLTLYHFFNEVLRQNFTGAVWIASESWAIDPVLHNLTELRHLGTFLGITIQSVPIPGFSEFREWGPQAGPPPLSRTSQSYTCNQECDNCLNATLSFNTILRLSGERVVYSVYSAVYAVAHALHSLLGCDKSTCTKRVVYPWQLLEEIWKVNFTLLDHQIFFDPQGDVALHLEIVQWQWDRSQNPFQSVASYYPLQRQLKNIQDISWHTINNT
Experimental: CD spectra were recorded at 25 °C on an Model 202SF circular dichroism spectrometer (Aviv, Lakewood, NY, USA) equipped with a Peltier temperature control. Samples were added to a 0.01 cm path length quartz cuvette with a concentration of the ATD (from human and mouse) of about 0.3 mg/mL (4.5 μM) in 10 mM Tris-HCl, 150 mM NaCl, 10% glycerol, pH 7.4. Data was collected every 1 nm with an averaging time of 5 s. The spectral bandwidth was 1 nm. Spectra were corrected for buffer and ligands contributions and converted to mean ellipticity in deg cm^2·dmol^−1. The content of α-helix was computed using the deconvolution program from Chen et al.. […] The KD was calculated by analyzing CD data at a fixed wavelength versus ligand concentration using a nonlinear regression method (see Table 1). MSG was used as a negative control.

mouse T1R2 ATD [2] = target: T2, mouse T1R2 ATD (Mus musculus, UniProt Q925I4); experiment: Intrinsic fluorescence spectroscopy, mouse T1R2 ATD; format: binding; conditions: excitation 280 nm
T2 construct: The mouse 8xHis-Tev-ATD-mT1R2 construct ranged from residues Gly2-Pro466; made in house
T2 sequence (Q925I4 2-465 limits assumed): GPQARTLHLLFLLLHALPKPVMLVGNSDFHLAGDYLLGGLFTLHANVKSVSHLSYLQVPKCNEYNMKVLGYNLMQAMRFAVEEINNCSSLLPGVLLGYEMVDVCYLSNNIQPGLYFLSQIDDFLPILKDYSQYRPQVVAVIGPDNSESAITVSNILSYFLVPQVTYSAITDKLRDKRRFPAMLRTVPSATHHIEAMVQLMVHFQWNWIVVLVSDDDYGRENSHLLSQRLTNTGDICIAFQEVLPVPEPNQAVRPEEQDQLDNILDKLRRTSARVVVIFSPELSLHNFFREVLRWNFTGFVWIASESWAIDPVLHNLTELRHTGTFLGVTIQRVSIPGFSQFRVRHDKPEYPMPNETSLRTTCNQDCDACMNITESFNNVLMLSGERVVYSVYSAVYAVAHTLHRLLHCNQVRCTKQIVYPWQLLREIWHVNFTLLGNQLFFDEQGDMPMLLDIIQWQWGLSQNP
Experimental: (§1) Samples were prepared in the same way as for the CD experiments. Experiments were performed at 25 °C on Carey Eclipse instrument (Agilent, Santa Clara, CA, USA). Spectra were subtracted from the buffer ± ligand backgrounds for presentation. The curves at 340 nm were the best fits of the data obtained by a regression method using Microsoft Excel software (Microsoft, Redmont, WA, USA).

human T1R2 ATD [3] = target: T3, human T1R2 ATD (Homo sapiens, UniProt Q8TE23); experiment: Saturation transfer difference NMR (STD-NMR) binding assay; conditions: neotame 3–10 mM at 27 °C; MSG at 7–37 °C
T3 construct: The human constructs ranged from residues Asn24-Met494 for human (ATD-hT1R2) in the SUMO fusion; His (N); TEV cleavage site (N); made in house
T3 sequence (Q8TE23 24-494): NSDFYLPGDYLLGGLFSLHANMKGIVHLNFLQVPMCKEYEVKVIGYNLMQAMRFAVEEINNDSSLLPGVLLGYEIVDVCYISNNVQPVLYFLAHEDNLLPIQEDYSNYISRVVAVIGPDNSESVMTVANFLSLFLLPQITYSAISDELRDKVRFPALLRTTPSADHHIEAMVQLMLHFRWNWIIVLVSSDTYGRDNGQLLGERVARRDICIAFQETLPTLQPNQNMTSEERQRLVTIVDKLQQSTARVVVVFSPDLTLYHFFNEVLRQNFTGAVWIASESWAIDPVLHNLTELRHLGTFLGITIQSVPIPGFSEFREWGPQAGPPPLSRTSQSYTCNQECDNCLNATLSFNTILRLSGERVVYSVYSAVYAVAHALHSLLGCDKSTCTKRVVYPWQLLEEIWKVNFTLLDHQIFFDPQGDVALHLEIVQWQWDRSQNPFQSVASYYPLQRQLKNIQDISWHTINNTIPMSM
Experimental: The ligand binding activity of ATD-T1R2 for all ligands was confirmed with a NMR-STD binding assay as previously described. Aliquots of the pure labeled SUMO-T1R2 protein were incubated with desired titrating ligands at 0.5–20 fold molar excess and concentrated to a final concentration of ~0.05 mM in 10 mM phosphate buffer (pH 7.4) containing 150 mM NaCl, 2.7 mM KCl, 5 mM DTT, 5x protease inhibitor (Roche) and 0.05% NaN3. Monosodium glutamate (MSG, non-sweet molecule) was used as a negative control. NMR data were collected on a VNMRS spectrometer (Varian, Palo Alto, CA, USA) operating at 800 MHz and equipped with a cryogenic probe. STD-NMR data collection and analysis was carried out as previously described.

mouse T1R2 ATD [4] = target: T2, mouse T1R2 ATD; experiment: Circular dichroism (CD) spectroscopy of ligand binding, mouse T1R2 ATD; conditions: mouse His-T1R2 ATD, saturating concentrations (neotame up to 500 μM)
Experimental: Data was collected every 1 nm with an averaging time of 5 s. The spectral bandwidth was 1 nm. Spectra were corrected for buffer and ligands contributions and converted to mean ellipticity in deg cm^2·dmol^−1. The content of α-helix was computed using the deconvolution program from Chen et al.. […] The KD was calculated by analyzing CD data at a fixed wavelength versus ligand concentration using a nonlinear regression method (see Table 1). MSG was used as a negative control.

human T1R2 ATD [5] = target: T1, human T1R2 ATD; experiment: Intrinsic fluorescence spectroscopy, human T1R2 ATD; format: binding; conditions: excitation 280 nm; for change in intrinsic fluorescence intensity: human T1R2 ATD, ligand 0–64 μM
Experimental: as §1

| Compound | Kd (human T1R2 ATD [1]) | EC50 (human T1R2 ATD [5]; h-T1R2 ATD, signal at 336 nm, read-out: ligand concentration at half of the maximal value of fluorescence change) | EC50 (mouse T1R2 ATD [2]; signal at 336 nm, read-out: half-maximal value of fluorescence intensity decrease) | change in intrinsic fluorescence intensity (mouse T1R2 ATD [2]) | STD signal / binding (human T1R2 ATD [3]) | change in CD profile / ellipticity upon ligand addition (human T1R2 ATD [1]) | change in ellipticity upon ligand addition (mouse T1R2 ATD [4]) | change in intrinsic fluorescence intensity (human T1R2 ATD [5]) |
| --- | --- | --- | --- | --- | --- | --- | --- | --- |
| CC1=CC(=O)NS(=O)(=O)O1 [Acetasulfame] | 100 µM |  |  |  |  |  |  |  |
| COC(=O)[C@H](Cc1ccccc1)NC(=O)[C@@H](N)CC(=O)O [Aspartame] (HELM PEPTIDE1{D.F.[CO[*:1]]}$$$$V2.0) | > 300 µM |  |  |  |  |  |  |  |
| N[C@H](Cc1c[nH]c2ccccc12)C(=O)O [D-Tryptophan] | 500 µM |  |  |  |  |  |  |  |
| N[C@@H](CCC(=O)O)C(=O)[O-].[Na+] [MSG, monosodium glutamate] |  |  |  | did not change the intrinsic fluorescence intensity | no STD signal | no change | no change in ellipticity | no change in intrinsic fluorescence intensity |

Further lines, with some results ahead:

| Kd (human T1R2 ATD [1]) | EC50 (human T1R2 ATD [5]; h-T1R2 ATD, signal at 336 nm, read-out: ligand concentration at half of the maximal value of fluorescence change) | EC50 (mouse T1R2 ATD [2]; signal at 336 nm, read-out: half-maximal value of fluorescence intensity decrease) | Compound | change in intrinsic fluorescence intensity (mouse T1R2 ATD [2]) | STD signal / binding (human T1R2 ATD [3]) | change in CD profile / ellipticity upon ligand addition (human T1R2 ATD [1]) | change in ellipticity upon ligand addition (mouse T1R2 ATD [4]) | change in intrinsic fluorescence intensity (human T1R2 ATD [5]) |
| --- | --- | --- | --- | --- | --- | --- | --- | --- |
| 40 µM | 5 µM |  | OC[C@H]1O[C@H](O[C@]2(CCl)O[C@H](CCl)[C@@H](O)[C@@H]2O)[C@H](O)[C@@H](O)[C@H]1Cl [Sucralose] |  |  |  |  | decreasing fluorescence intensity |
| 40 µM |  | 8 µM | OC[C@H]1O[C@@](CO)(O[C@H]2O[C@H](CO)[C@@H](O)[C@H](O)[C@H]2O)[C@@H](O)[C@@H]1O [Sucrose] | decrease in the fluorescence intensity |  | small decrease in ellipticity | small decrease in ellipticity | did not change the fluorescence intensity |
